# In patent US10441593B2, “Treatment of pain associated with dislocation of endometrium” (PREGLEM S.A., priority 2010, dated 2019):
# System: patients with heavy menstrual bleeding and pain
# Assay: Hepatobiliary Disorders and Liver Safety analysis (Example 3)
# Format: in vivo, human
# Method: A double-blinded, randomized, study evaluating the effect of long term oral administration of 5 mg or 10 mg ulipristal in patients with heavy menstrual bleeding and pain. A Hepatobiliary Disorders and Liver Safety analysis was carried out for all patients. This summary table illustrates the increased number of subjects from the 3 treatment groups who had increased levels of AST, ALT and total bilirubin during the study.
# [1] = Ulipristal 5 mg (n = 97), Week 5
# [2] = Ulipristal 5 mg (n = 97), Week 9
# [3] = Ulipristal 5 mg (n = 97), Week 13
# [4] = Ulipristal 5 mg (n = 97), Week 17
# [5] = Ulipristal 10 mg (n = 103), Week 5
# [6] = Ulipristal 10 mg (n = 103), Week 9
# [7] = Ulipristal 10 mg (n = 103), Week 13
# [8] = Ulipristal 10 mg (n = 103), Week 17
structure (smiles),measurement,setting,value
"CC(=O)O[C@]1(C(C)=O)CC[C@H]2[C@@H]3CCC4=CC(=O)CCC4=C3[C@@H](c3ccc(N(C)C)cc3)C[C@@]21C [Ulipristal, 17α-acetoxy-11β-[4-N,N-dimethylamino-phenyl)-19-norpregna-4,9-diene-3,20-dione]",treatment related changes in liver function tests,"5 mg or 10 mg, long term oral administration",no signals of any treatment related changes in liver function tests
same,"ALT High not CS, number (%) of subjects",[1],4 (4.1%)
same,"ALT Low not CS, number (%) of subjects",[1],0
same,"AST High not CS, number (%) of subjects",[1],6 (6.2%)
same,"AST Low not CS, number (%) of subjects",[1],0
same,"Total bilirubin High CS, number (%) of subjects",[1],0
same,"Total bilirubin High not CS, number (%) of subjects",[1],2 (2.1%)
same,"Total bilirubin Low not CS, number (%) of subjects",[1],0
same,"ALT High not CS, number (%) of subjects",[2],0
same,"ALT Low not CS, number (%) of subjects",[2],0
same,"AST High not CS, number (%) of subjects",[2],3 (3.1%)
same,"AST Low not CS, number (%) of subjects",[2],0
same,"Total bilirubin High not CS, number (%) of subjects",[2],3 (3.1%)
same,"Total bilirubin Low not CS, number (%) of subjects",[2],0
same,"ALT High not CS, number (%) of subjects",[3],1 (1.0%)
same,"ALT Low not CS, number (%) of subjects",[3],0
same,"AST High not CS, number (%) of subjects",[3],2 (2.1%)
same,"AST Low not CS, number (%) of subjects",[3],0
same,"Total bilirubin High not CS, number (%) of subjects",[3],3 (3.1%)
same,"Total bilirubin Low not CS, number (%) of subjects",[3],0
same,"ALT High CS, number (%) of subjects",[4],0
same,"ALT High not CS, number (%) of subjects",[4],2 (2.1%)
same,"ALT Low not CS, number (%) of subjects",[4],0
same,"AST High not CS, number (%) of subjects",[4],3 (3.1%)
same,"AST Low not CS, number (%) of subjects",[4],0
same,"Total bilirubin High not CS, number (%) of subjects",[4],2 (2.1%)
same,"Total bilirubin Low not CS, number (%) of subjects",[4],0
same,"subjects with elevations of both AST and ALT above 2×ULN, but <3×ULN for consecutive samples",Ulipristal 5 mg group,1 subject
same,"ALT High not CS, number (%) of subjects",[5],6 (5.8%)
same,"ALT Low not CS, number (%) of subjects",[5],0
same,"AST High not CS, number (%) of subjects",[5],6 (5.8%)
same,"AST Low not CS, number (%) of subjects",[5],0
same,"Total bilirubin High CS, number (%) of subjects",[5],0
same,"Total bilirubin High not CS, number (%) of subjects",[5],3 (2.9%)
same,"Total bilirubin Low not CS, number (%) of subjects",[5],0
same,"ALT High not CS, number (%) of subjects",[6],3 (2.9%)
same,"ALT Low not CS, number (%) of subjects",[6],0
same,"AST High not CS, number (%) of subjects",[6],3 (2.9%)
same,"AST Low not CS, number (%) of subjects",[6],0
same,"Total bilirubin High not CS, number (%) of subjects",[6],4 (3.9%)
same,"Total bilirubin Low not CS, number (%) of subjects",[6],0
same,"ALT High not CS, number (%) of subjects",[7],5 (4.9%)
same,"ALT Low not CS, number (%) of subjects",[7],0
same,"AST High not CS, number (%) of subjects",[7],4 (3.9%)
same,"AST Low not CS, number (%) of subjects",[7],0
same,"Total bilirubin High not CS, number (%) of subjects",[7],6 (5.8%)
same,"Total bilirubin Low not CS, number (%) of subjects",[7],0
same,"ALT High CS, number (%) of subjects",[8],0
same,"ALT High not CS, number (%) of subjects",[8],4 (3.9%)
same,"ALT Low not CS, number (%) of subjects",[8],0
same,"AST High not CS, number (%) of subjects",[8],4 (3.9%)
same,"AST Low not CS, number (%) of subjects",[8],0
same,"Total bilirubin High not CS, number (%) of subjects",[8],2 (1.9%)
same,"Total bilirubin Low not CS, number (%) of subjects",[8],0
same,"subjects with elevations of both AST and ALT above 2×ULN, but <3×ULN for consecutive samples",Ulipristal 10 mg group,2 subjects
same,liver toxicity based on Treatment Emergent Adverse Events (TEAEs),clinical studies,no evidence of liver toxicity
